Experimental data from patent US20060127957A1, “Novel biologicalcancer marker and methods for determining the cancerous or non-cancerous phenotype of cells” (priority 2002, published 2006).

Columns and labels:
[1] = system: MEF; assay: Filopodia formation in MEF (F-actin staining, cells with at least 5 filopodia scored positive); format: cell-based, mouse; details: pretreated for 10 hours (TNFα 100 ng.ml^−1, adriamycin 5 μg.ml^−1, etoposide 25 μg.ml^−1), followed by 12 minutes bradykinin; bradykinin alone 62%
From the text: (§1) Human wild type p53 cDNA or its mutated forms, H175 and H273 were cloned into the BamH1 site of pCDNA3 vector (Invitrogen), then transferred in pEGFPC1 (Clontech) to give GFP-tagged proteins. Constructs expressing MYC epitope-tagged mutant Rac1, Cdc42 and RhoA proteins and their various mutants were kindly provided by P. Chavrier (Dutartre et al., 1996). The GFP fusion proteins were cloned in the pEGFP-C1 vector (Gauthier-Rouviere et al., 1998), (Ory et al., 2000), (Roux et al., 1997). The pcDNA3myc-NWASP containing the Cdc42-interacting domain of WASP was previously described in (Philips et al., 2000). The pGL2B-mdm2 plasmid in which the reporter gene luciferase is controlled by the p53-responsive element of mdm2 (Barak et al., 1994) was a kind gift of E. Yonish-Rouach. pTKRL plasmid was from Promega. TNFα, adriamycin and etoposide (Sigma) were used in all experiments at the concentration of 100 ng.ml^−1, 5 μg.ml^−1 and 25 μg.ml^−1, respectively.
(§2) Cdc42-dependent filopodia formation was induced by bradykinin (Kozma et al., 1995; Nobes and Hall, 1995a). p53 was activated either by Tumor Necrosis Factor-a (TNFa), or using two cytotoxic drugs adriamycin and etoposide, previously shown to induce accumulation of p53 in MEF (Klefstrom et al., 1997; Lowe et al., 1993).

[2] = system: p53-responsive element of mdm2; assay: p53 transactivation assay (dual-luciferase, mdm2 promoter reporter) in MEF; format: cell-based, mouse; details: MEF treated for 10 hours, TNFα 100 ng.ml^−1, adriamycin 5 μg.ml^−1, etoposide 25 μg.ml^−1; for activation of the p53-responsive element (luciferase activity): luciferase assayed 24 hours after transfection
Experimental: A: MEF were transfected with the firefly luciferase gene under the control of the mdm2 promoter and treated for 10 hours either with TNFa adriamycin, or etoposide. The luciferase activity was assayed 24 hours after transfection. The p53 responsive element construct was transfected in combination with either p53wt, as a positive control, or with the dominant negative mutants p53-H273 or p53-H175. The luciferase activity was assayed 24 hours later. The results are shown as mean+/−S.D. of four measurements.
as §1
p53 transactivation was measured using the dual-luciferase assay system from Promega. Cells (5×10^4) were seeded onto twelve-well plates and transfected 18 hours later in OptiMEM containing 0.440 μg of DNA (0.2 μg of appropriate GTPase plasmids, 0.2 μg of pGL2B-mdm2-luciferase plasmid and 0.04 μg of pTKRL plasmid) using 0.33 μl of Lipofectamine (Gibco-BRL) for 4 h. Cells were then left for 24 h in DMEM supplemented with 10% FCS, harvested in […] of Passive Lysis Buffer (PLB, Promega), and luciferase activity was measured following the Dual-luciferase™ Reporter Assay Protocol as recommended by Promega, using a luminometer fitted with two injectors (Berthold).
as §2, with “1993). […] Finally, we monitored the effect of p53 upregulation by TNFα, etoposide and adriamycin on Cdc42-dependent filopodia formation by bradykinin.” for “1993).”

| activation of the p53-responsive element (luciferase activity) [2] | Compound | MEF having filopodia (bradykinin-mediated filopodia formation after pretreatment) [1] | activation of the p53-responsive element as % of the value obtained with the positive control (p53 wt) [2] |
| --- | --- | --- | --- |
| twenty four-fold | COc1cc([C@@H]2c3cc4c(cc3[C@@H](O[C@@H]3O[C@@H]5CO[C@@H](C)O[C@H]5[C@H](O)[C@H]3O)[C@H]3COC(=O)[C@H]23)OCO4)cc(OC)c1O [etoposide] | 20% | 30% |
| twenty eight-fold | Tumor Necrosis Factor-a [TNFα] | 28% | 36% |

| Compound | activation of the p53-responsive element (luciferase activity) [2] | MEF having filopodia (bradykinin-mediated filopodia formation after pretreatment) [1] | activation of the p53-responsive element as % of the value obtained with the positive control (p53 wt) [2] |
| --- | --- | --- | --- |
| COc1cccc2c1C(=O)c1c(O)c3c(c(O)c1C2=O)C[C@@](O)(C(=O)CO)C[C@@H]3O[C@H]1C[C@H](N)[C@H](O)[C@H](C)O1 [adriamycin] | nineteen-fold | 16% | 23% |
